Experimental data from ChEMBL document CHEMBL1782014, “20(R)-ginsenoside Rh2, not 20(S), is a selective osteoclastgenesis inhibitor without any cytotoxicity” (Bioorg Med Chem Lett, 2009).

Key:
[1] = Toxicity in RANKL and TNFalpha-pretreated mouse RAW264 cells assessed as inhibition of cell proliferation incubated for 3 days by WST-1 assay; conditions: RAW264 cells pretreated with RANKL and TNFalpha
[2] = Inhibition of RANKL and TNF-alpha-induced osteoclastogenesis in mouse RAW264 cells incubated for 3 days by TRAP staining based method; format: functional, cell-based; conditions: RAW264.7, 72 h
[3] = test system: Radical scavenging activity; experiment: Antioxidant activity assessed as DPPH radical scavenging activity at 1.6 mM after 20 mins by UV spectrophotometry; format: functional
[4] = Toxicity in RANKL and TNFalpha-pretreated mouse RAW264 cells assessed as effect on cell proliferation upto 50 uM incubated for 3 days by WST-1 assay; conditions: raw264, 72 h
[5] = Toxicity in RANKL and TNFalpha-pretreated mouse RAW264 cells assessed as inhibition of cell proliferation upto 100 uM incubated for 3 days by WST-1 assay; conditions: raw264, 72 h
[6] = test system: Radical scavenging activity; experiment: Antioxidant activity assessed as DPPH radical scavenging activity at 0.2 mM after 20 mins by UV spectrophotometry; format: functional

Structure (SMILES)	IC50 at 3 days [1] [µM]	IC50 [2] [µM]	Activity [3] [%]	Activity [4]	Activity [5]	Activity [6] [%]
CC(C)=CCC[C@](C)(O)[C@H]1CC[C@]2(C)[C@@H]1[C@H](O)C[C@@H]1[C@@]3(C)CC[C@H](O[C@@H]4O[C@H](CO)[C@@H](O)[C@H](O)[C@H]4O)C(C)(C)[C@@H]3CC[C@]12C [GINSENOSIDE RH2]	62	32	< 10			
CC(C)=CCC[C@@](C)(O)[C@H]1CC[C@]2(C)[C@@H]1[C@H](O)C[C@@H]1[C@@]3(C)CC[C@H](O[C@@H]4O[C@H](CO)[C@@H](O)[C@H](O)[C@H]4O)C(C)(C)[C@@H]3CC[C@]12C		12	< 10	Non-toxic	Non-toxic	
Cc1c(C)c2c(c(C)c1O)CC[C@@](C)(CCC[C@H](C)CCC[C@H](C)CCCC(C)C)O2						96
